Test results taken from publication PMC5150661 (Journal of Medicinal Chemistry, 2016).

Legend:
[1] = format: in vitro ADME; conditions: liver microsomes
[2] = 1% DMSO, nephelometry; for Sol2.0: 0.01 M HCl (approximately pH 2.0); for Sol6.5: pH 6.5 phosphate buffer

SMILES	metabolic stability (in words) [1]	Sol2.0 [2]	Sol6.5 [2]	metabolic reactions observed [1]
CC1(C)C(=O)N(c2ccc(F)c(C(F)(F)F)c2)C(=O)N1S(C)(=O)=O [Compd 7, 3-[4-Fluoro-3-(trifluoromethyl)phenyl]-5,5-dimethyl-1-(methylsulfonyl)imidazolidine-2,4-dione]	highly stable	1.6–3.1/1.6–3.1 μg/mL	1.6–3.1/1.6–3.1 μg/mL	
O=C1CNC(=O)N1c1ccc(F)c(C(F)(F)F)c1 [Compd 22]	high metabolic stabilities	>100/>100 μg/mL	>100/>100 μg/mL	
CC1(C)C(=O)N(c2ccc(F)c(C(F)(F)F)c2)C(=O)N1S(=O)(=O)c1ccccc1 [Compd 8, 3-[4-Fluoro-3-(trifluoromethyl)phenyl]-5,5-dimethyl-1-(phenylsulfonyl)imidazolidine-2,4-dione]	unstable	<1.6/<1.6 μg/mL	<1.6/<1.6 μg/mL	
CN1C(=O)N(c2ccc(F)c(C(F)(F)F)c2)C(=O)C1(C)C [Compd 2, 3-[4-Fluoro-3-(trifluoromethyl)phenyl]-1,5,5-trimethylimidazolidine-2,4-dione]	intermediate	50–100/50–100 μg/mL	50–100/50–100 μg/mL	N-dealkylation metabolic reactions to form 1
CC1(C)C(=O)N(c2ccc(F)c(C(F)(F)F)c2)C(=O)N1CC#N [Compd 5, 2-[3-[4-Fluoro-3-(trifluoromethyl)phenyl]-5,5-dimethyl-2,4-dioxoimidazolidin-1-yl]acetonitrile]		25–50/25–50 μg/mL	25–50/25–50 μg/mL	

Continued, in another order:

metabolic stability (in words) [1]	Sol2.0 [2]	Sol6.5 [2]	SMILES	metabolic reactions observed [1]
	25–50/25–50 μg/mL	25–50/25–50 μg/mL	CC1(C)C(=O)NC(=O)N1c1ccc(F)c(C(F)(F)F)c1 [Compd 33, 1-[4-Fluoro-3-(trifluoromethyl)phenyl]-5,5-dimethylimidazolidine-2,4-dione]	
	3.1–6.3/3.1–6.3 μg/mL	3.1–6.3/3.1–6.3 μg/mL	CC1(C)OC(=O)N(c2ccc(F)c(C(F)(F)F)c2)C1=O [Compd 30, 3-[4-Fluoro-3-(trifluoromethyl)phenyl]-5,5-dimethyloxazolidine-2,4-dione]	
	12.5–25/12.5–25 μg/mL	12.5–25/12.5–25 μg/mL	CC1(C)CNC(=O)N(c2ccc(F)c(C(F)(F)F)c2)C1=O [Compd 35, 3-[4-Fluoro-3-(trifluoromethyl)phenyl]-5,5-dimethyldihydropyrimidine-2,4(1H,3H)-dione]	
decreased the metabolic stabilities	25–50/25–50 μg/mL	25–50/25–50 μg/mL	O=C1C2CCCN2C(=O)N1c1ccc(F)c(C(F)(F)F)c1 (stereo not shown) [Compd 28, 2-[4-Fluoro-3-(trifluoromethyl)phenyl]tetrahydro-1H-pyrrolo[1,2-c]imidazole-1,3(2H)-dione]	
	12.5–25/12.5–25 μg/mL	12.5–25/12.5–25 μg/mL	CC1(C)CC(=O)N(c2ccc(F)c(C(F)(F)F)c2)C1=O [Compd 29, 1-[4-Fluoro-3-(trifluoromethyl)phenyl]-3,3-dimethylpyrrolidine-2,5-dione]	
	12.5–25/12.5–25 μg/mL	12.5–25/12.5–25 μg/mL	CC1(C)CN(c2ccc(F)c(C(F)(F)F)c2)C(=O)N1 [Compd 32, 1-[4-Fluoro-3-(trifluoromethyl)phenyl]-4,4-dimethylimidazolidin-2-one]	
	25 to 50 µg/mL		CC1(C)NC(=O)C(c2ccc(F)c(C(F)(F)F)c2)C1=O (stereo not shown) [Compd 31, 3-[4-Fluoro-3-(trifluoromethyl)phenyl]-5,5-dimethylpyrrolidine-2,4-dione]	
	25–50/25–50 μg/mL	25–50/25–50 μg/mL	CC1(C)CC(=O)N(c2ccc(F)c(C(F)(F)F)c2)C(=O)N1 [Compd 34, 3-[4-Fluoro-3-(trifluoromethyl)phenyl]-6,6-dimethyldihydropyrimidine-2,4(1H,3H)-dione]	
